Twelve compounds from US12433952B2, “Antibody-drug conjugates targeting folate receptor alpha and methods of use” (ZYMEWORKS BC INC., priority 2022, dated 2025) can be followed below.

Assay type in all cases: cell-based
One data set deals with SKOV-3 (ovarian cancer). Nature of the data set: In vitro cytotoxicity of camptothecin analogues (CellTiter-Glo). The settings on record: Homo sapiens, SK-OV-3, 96 h; 4 d incubation; read-out: pIC50 SKOV-3 (converted). In short, it runs like this: (§1)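 Cells seeded at 20,000 cells/mL (ZR-75-1 at 10,000 cells/mL) with serially diluted compounds in RPMI 1640 + 10% FBS and incubated 4 d at 37 °C (ZR-75-1 5 d). Growth inhibition was read by CellTiter-Glo luminescence and IC50 fitted.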
In general terms: ATP-based viability assays read luminescence as a measure of living cells.

In data set [1] the test system is MDA-MB-468 (breast cancer). The description is as above. The settings on record: Homo sapiens, MDA-MB-468, 96 h; 4 d incubation; read-out: pIC50 MDA-MB-468 (converted). In short, it runs like this:
as §1

Another data set concerns Calu-3 (lung cancer). The description is as above. The conditions noted are these: Homo sapiens, Calu-3, 96 h; 4 d incubation; read-out: pIC50 Calu-3 (converted). A digest of the protocol:
as §1

A further data set deals with SK-BR-3 (breast cancer). The data set is described as above. The settings on record: Homo sapiens, SK-BR-3, 96 h; 4 d incubation; read-out: pIC50 SKBR-3 (converted). A digest of the protocol: as §1
A further data set relates to ZR-75-1 (breast cancer). The data set is described as above. The conditions noted are these: Homo sapiens, ZR-75-1, 120 h; 5 d incubation; read-out: pIC50 ZR-75 (converted). In short, it runs like this:
as §1

Data set [2] has as its system FRα-negative MDA-MB-468 cells co-cultured with FRα-positive JEG-3. Nature of the data set: Bystander activity of ADCs (mono-culture vs co-culture, flow cytometry). The settings on record: 4 days; for bystander activity / Average MDA-MB-468 Viability (%) Mono-culture / % Bystander Activity: 2 nM ADC; for bystander activity: viability of MDA-MB-468 in co-culture vs mono-culture; for Average MDA-MB-468 Viability (%) Co-culture: MDA-MB-468 co-cultured with JEG-3, 2 nM ADC; for Average MDA-MB-468 Viability (%) Co-culture / Average MDA-MB-468 Viability (%) Mono-culture: relative to untreated blank; for Average MDA-MB-468 Viability (%) Mono-culture: MDA-MB-468 mono-culture; for % Bystander Activity: mono-culture viability compared with co-culture viability. As to the method:
The ability of the humanized variant v30384 conjugated to various drug-linkers to exert a bystander killing effect on cancer cells was assessed according to the method described below. Bystander killing most commonly occurs after target-specific uptake of an ADC into an antigen-positive cell. Trafficking and degradation of the ADC results in release of active catabolite free drug, which then crosses the cell membrane of nearby cells to elicit cell death.
FRα-positive JEG-3 and FRα-negative MDA-MB-468 cells were seeded either as mono-cultures or co-cultures in a 48-well plate at 20,000 cells and 10,000 cells, respectively, in 100 μL assay media (Minimum Essential Media supplemented with 10% Fetal Bovine Serum (both from Thermo Fisher Scientific, Waltham, MA)). ADCs were diluted to 4 nM in assay media and 100 μL was added to the cell-containing plates (2 nM final ADC concentration). Cells were incubated with ADCs for 4 days under standard culturing conditions (37° C./5% C02). Following incubation, cells were dissociated, washed, and stained using a viability dye, YO—PRO®-1 (ThermoFisher Scientific, Waltham, MA), and an anti-FRα antibody, mirvetuximab (v17716), conjugated to Alexa Fluor®647, for 20 minutes at 4° C. After incubation, cells were washed in FACS buffer (phosphate buffered saline pH 7.4 (ThermoFisher Scientific, Waltham, MA) supplemented with 2% FBS), resuspended in 70 μL FACS buffer per well, and 35 μL per well were analyzed on a BD LSRFortessa™ Cell Analyzer (BD Biosciences, Franklin Lake, NJ). Dead cells were excluded by gating on YO—PRO®-1 staining. The number of JEG-3 and MDA-MB-468 cells were determined by the number of events in the Alexa Fluor®647 positive (FRα-positive) and Alexa Fluor®647 negative (FRα-negative) gates, respectively. Percent viability was calculated as the number of cells in treatment condition divided by the number of cells in the no-treatment condition.
On the technique in general: In flow cytometry, cells or beads pass a laser one at a time.

For `CC[C@@]1(O)C(=O)OCc2c1cc1n(c2=O)Cc2c-1nc1cc(F)c(N)cc1c2CO` [Compound 141, (S)-9-amino-4-ethyl-8-fluoro-4-hydroxy-11-(hydroxymethyl)-1,12-dihydro-14H-pyrano[3′,4′:6,7]indolizino[1,2-b]quinoline-3,14(4H)-dione], the IC50 was 2.82 nM in the data set with SKOV-3 (ovarian cancer); 1.45 nM in data set [1]; 1.02 nM in the data set on Calu-3 (lung cancer); 0.347 nM in the data set on SK-BR-3 (breast cancer); 0.309 nM with ZR-75-1 (breast cancer).

For the compound `CC[C@@]1(O)C(=O)OCc2c1cc1n(c2=O)Cc2c-1nc1cc(F)c(N)cc1c2CN1CCOCC1` [Compound 142, (S)-9-amino-4-ethyl-8-fluoro-4-hydroxy-11-(morpholinomethyl)-1,12-dihydro-14H-pyrano[3′,4′:6,7]indolizino[1,2-b]quinoline-3,14(4H)-dione], the IC50 in the data set with SKOV-3 (ovarian cancer) was 1.29 nM; in data set [1] it was 1.29 nM; with Calu-3 (lung cancer), 1.29 nM; in the data set on SK-BR-3 (breast cancer) it was 0.631 nM; in the data set with ZR-75-1 (breast cancer) it was 0.759 nM.

For `CC[C@@]1(O)C(=O)OCc2c1cc1n(c2=O)Cc2c-1nc1cc(F)c(N)cc1c2CNC(=O)OC` [Compound 143, Methyl (S)-((9-amino-4-ethyl-8-fluoro-4-hydroxy-3,14-dioxo-3,4,12,14-tetrahydro-1H-pyrano[3′,4′:6,7]indolizino[1,2-b]quinolin-11-yl)methyl)carbamate], the IC50 is 2.82 nM with SKOV-3 (ovarian cancer); 0.708 nM in data set [1]; 0.708 nM with Calu-3 (lung cancer); 0.389 nM in the data set with SK-BR-3 (breast cancer); 0.851 nM with ZR-75-1 (breast cancer).

As for `CC[C@@]1(O)C(=O)OCc2c1cc1n(c2=O)Cc2c-1nc1cc(F)c(N)cc1c2CNC(=O)NC` [Compound 144, (S)-1-((9-amino-4-ethyl-8-fluoro-4-hydroxy-3,14-dioxo-3,4,12,14-tetrahydro-1H-pyrano[3′,4′:6,7]indolizino[1,2-b]quinolin-11-yl)methyl)-3-methylurea], the IC50 in the data set on SKOV-3 (ovarian cancer) was 69.2 nM; in data set [1], 22.4 nM; in the data set with Calu-3 (lung cancer), 22.4 nM; in the data set on SK-BR-3 (breast cancer), 0.794 nM; in the data set on ZR-75-1 (breast cancer), 13.2 nM.

Consider `CC[C@@]1(O)C(=O)OCc2c1cc1n(c2=O)Cc2c-1nc1cc(F)c(N)cc1c2CN` [Compound 145, (S)-9-amino-11-(aminomethyl)-4-ethyl-8-fluoro-4-hydroxy-1,12-dihydro-14H-pyrano[3′,4′:6,7]indolizino[1,2-b]quinoline-3,14(4H)-dione], for which the IC50 with SKOV-3 (ovarian cancer) is 0.933 nM; in data set [1], 0.269 nM; in the data set with Calu-3 (lung cancer) it was 0.269 nM; in the data set with SK-BR-3 (breast cancer), 0.355 nM; in the data set on ZR-75-1 (breast cancer), 0.38 nM.

In the case of `CC[C@@]1(O)C(=O)OCc2c1cc1n(c2=O)Cc2c-1nc1cc(F)c(N)cc1c2CNS(C)(=O)=O` [Compound 146, (S)—N-((9-amino-4-ethyl-8-fluoro-4-hydroxy-3,14-dioxo-3,4,12,14-tetrahydro-1H-pyrano[3′,4′:6,7]indolizino[1,2-b]quinolin-11-yl)methyl)methanesulfonamide], the IC50 is 11.2 nM in the data set on SKOV-3 (ovarian cancer); 4.37 nM in data set [1]; 4.37 nM in the data set on Calu-3 (lung cancer); 1.74 nM in the data set on SK-BR-3 (breast cancer); 6.03 nM in the data set with ZR-75-1 (breast cancer).

In the case of `CC[C@@]1(O)C(=O)OCc2c1cc1n(c2=O)Cc2c-1nc1cc(F)c(N)cc1c2CN1CCN(C)CC1` [Compound 149, (S)-9-amino-4-ethyl-8-fluoro-4-hydroxy-11-((4-methylpiperazin-1-yl)methyl)-1,12-dihydro-14H-pyrano[3′,4′:6,7]indolizino[1,2-b]quinoline-3,14(4H)-dione], the IC50 in the data set on SKOV-3 (ovarian cancer) is 10 nM; in data set [1], 6.31 nM; in the data set with Calu-3 (lung cancer), 6.31 nM; in the data set with SK-BR-3 (breast cancer), 3.16 nM; with ZR-75-1 (breast cancer), 1.82 nM.

As to `CC[C@@]1(O)C(=O)OCc2c1cc1n(c2=O)Cc2c-1nc1cc(F)c(N)cc1c2CNC(=O)NCCO` [Compound 151, (S)-1-((9-amino-4-ethyl-8-fluoro-4-hydroxy-3,14-dioxo-3,4,12,14-tetrahydro-1H-pyrano[3′,4′:6,7]indolizino[1,2-b]quinolin-11-yl)methyl)-3-(2-hydroxyethyl)urea], the IC50 was 45.7 nM with SKOV-3 (ovarian cancer); 11.5 nM in data set [1]; 11.5 nM in the data set on Calu-3 (lung cancer); 2.69 nM in the data set with SK-BR-3 (breast cancer); 5.89 nM in the data set on ZR-75-1 (breast cancer).

In the case of “palivizumab MC-GGFG-AM-DXd1: "ADCs comprising palivizumab (v22277) conjugated to MC-GGFG-AM-DXd1 and MCvcPABC-MMAE were included as negative controls"”, in data set [2], the bystander activity result is reported as “negative bystander activity”.

“palivizumab MCvcPABC-MMAE: "ADCs comprising palivizumab (v22277) conjugated to MC-GGFG-AM-DXd1 and MCvcPABC-MMAE were included as negative controls"”: the bystander activity result in data set [2] is “negative bystander activity”.

On to “v22277-MC-GGFG-AM-DXd1: "negative controls palivizumab (anti-RSV) (v22277) conjugated to MC-GGFG-AM-DXd1 (DAR 8) and MCvcPABC-MMAE (DAR 4)"”, for which, in data set [2], the “Average MDA-MB-468 Viability (%) Co-culture” value turned out to be 101.8%, the “Average MDA-MB-468 Viability (%) Mono-culture” value was found to be 91.6% and the “% Bystander Activity” value is recorded as −10.2%.

For “v22277-MCvcPABC-MMAE: "negative controls palivizumab (anti-RSV) (v22277) conjugated to MC-GGFG-AM-DXd1 (DAR 8) and MCvcPABC-MMAE (DAR 4)"”, in data set [2], the “Average MDA-MB-468 Viability (%) Co-culture” value stood at 94.2%, the “Average MDA-MB-468 Viability (%) Mono-culture” value is reported as 81.3% and the “% Bystander Activity” value is recorded as −12.9%.
